Earlier results in publication PMC4360375 (Journal of Medicinal Chemistry, 2015).
Like-named read-outs stand apart in the source and are kept apart here.

Test system: GABA uptake, rat synaptosome
Details: literature data set, cited from earlier work

SMILES	pIC50 (ref 10.1021/jm981027k)	other results
Cc1ccsc1C(=NOCCN1CCC[C@H](C(=O)O)C1)c1sccc1C [An_1999/3_80, s1ccc(C)c1\C(=N\OCCN1C[C@H](CCC1)C(O)=O)\c1sccc1C]	7.097	–
Cc1ccsc1C(=CCCN1CCC[C@@H](C(=O)O)C1)c1sccc1C [compound 5, tiagabine]	–	pIC50 (ref 10.1021/jm00064a005): 7.174
Cc1ccsc1/C(=C/CCN1CCC[C@@H](C(=O)O)C1)c1cccs1 [An_1993_40, s1ccc(C)c1\C(=C\CCN1C[C@@H](CCC1)C(O)=O)\c1sccc1]	–	pIC50 (ref 10.1021/jm00064a005): 7.222
Cc1ccccc1/C(=N\OCCN1CCC[C@H](C(=O)O)C1)c1sccc1C [An_1999/3_83, s1ccc(C)c1/C(=N/OCCN1C[C@H](CCC1)C(O)=O)/c1ccccc1C]	6.886	–
Cn1cccc1/C(=C/CCN1CCC=C(C(=O)O)C1)c1ccccc1 [An_1993_49, OC(=O)C=1CN(CCC=1)CC\C=C(/c1ccccc1)\c1n(ccc1)C]	–	pIC50 (ref 10.1021/jm00064a005): 6.886
O=C(O)[C@@H]1CCCN(CCO/N=C2\CCCC=C2c2ccccc2)C1 [An_2001/6_25, O(\N=C\1/CCCC=C/1c1ccccc1)CCN1C[C@@H](CCC1)C(O)=O]	–	pIC50 (ref 10.1016/S0968-0896(01)00148-1): 6.456
Cc1ccccc1C(=NOCCN1CCC=C(C(=O)O)C1)c1ccccc1C [An_1999/3_64, O(\N=C(\c1ccccc1C)/c1ccccc1C)CCN1CC(=CCC1)C(O)=O]	7.222	–
O=C(O)[C@@H]1CCCN(CCON=C2c3ccccc3CCc3ccccc32)C1 [An_2001/5_16, O(\N=C/1\c2c(CCc3c\1cccc3)cccc2)CCN1C[C@@H](CCC1)C(O)=O]	–	pIC50 (ref 10.1021/jm990513k): 5.936
Cc1ccccc1/C(=C\OCCN1CCC[C@@H](C(=O)O)C1)c1ccc(F)cc1C [An_1999/3_99, Fc1cc(C)c(cc1)\C(=C\OCCN1C[C@@H](CCC1)C(O)=O)\c1ccccc1C]	7.523	–
O=C(O)[C@@H]1CCCN(CCCCOCCN(c2ccccc2)c2ccccc2)C1 [An_1999/4_(R)-18, O(CCCCN1C[C@@H](CCC1)C(O)=O)CCN(c1ccccc1)c1ccccc1]	–	pIC50 (ref 10.1021/jm980492e): 6.523
O=C(O)[C@H]1CCCN(CCOCCN2c3ccccc3Sc3ccc(C(F)(F)F)cc32)C1 [An_2001/5_22, S1c2c(N(c3c1cccc3)CCOCCN1C[C@H](CCC1)C(O)=O)cc(cc2)C(F)(F)F]	–	pIC50 (ref 10.1021/jm990513k): 6.979
O=C(O)[C@@H]1CCCN(CCOC=C(c2ccccc2Cl)c2ccccc2Cl)C1 [An_1999/3_109, Clc1ccccc1\C(=C\OCCN1C[C@@H](CCC1)C(O)=O)\c1ccccc1Cl]	7.301	–
Cc1ccccc1C(=CCCN1CCC[C@@H](C(=O)O)C1)c1ccccc1C [An_1993_34, OC(=O)[C@@H]1CCCN(C1)CC\C=C(\c1ccccc1C)/c1ccccc1C]	–	pIC50 (ref 10.1021/jm00064a005): 7.097
O=C(O)[C@@H]1CCCN(CCOC=C2c3ccccc3CCc3ccccc32)C1 [An_2001/5_18, O(\C=C/1\c2c(CCc3c\1cccc3)cccc2)CCN1C[C@@H](CCC1)C(O)=O]	–	pIC50 (ref 10.1021/jm990513k): 5.662
Cc1ccccc1[C@H](CCOCCN1CCC[C@@H](C(=O)O)C1)c1ccccc1 [An_1999/4_(R)-31, O(CC[C@@H](c1ccccc1C)c1ccccc1)CCN1C[C@@H](CCC1)C(O)=O]	–	pIC50 (ref 10.1021/jm980492e): 7.066
O=C(O)[C@@H]1CCCN(CCO/N=C(/c2cccc(F)c2)c2ccccc2F)C1 [An_1999/3_75, Fc1ccccc1\C(=N/OCCN1C[C@@H](CCC1)C(O)=O)\c1cc(F)ccc1]	6.658	–
O=C(O)[C@@H]1CCCN(CCOC=C(c2ccccc2)c2ccccc2)C1 [An_1999/3_47, O(\C=C(\c1ccccc1)/c1ccccc1)CCN1C[C@@H](CCC1)C(O)=O]	7.066	–
O=C(O)C1=CCCN(CCOC=C(c2ccccc2Cl)c2ccccc2Cl)C1 [An_1999/3_110, Clc1ccccc1\C(=C\OCCN1CC(=CCC1)C(O)=O)\c1ccccc1Cl]	7.921	–
O=C(O)[C@@H]1CCCN(CCCCCN(c2ccccc2)c2ccccc2)C1 [An_1999/4_(R)-12, OC(=O)[C@@H]1CCCN(C1)CCCCCN(c1ccccc1)c1ccccc1]	–	pIC50 (ref 10.1021/jm980492e): 5.86
Cc1ccsc1/C(=C/CCN1CCC=C(C(=O)O)C1)c1ccc(Cl)cc1Cl [An_1993_37, Clc1cc(Cl)ccc1\C(=C/CCN1CC(=CCC1)C(O)=O)\c1sccc1C]	–	pIC50 (ref 10.1021/jm00064a005): 6.495
Cc1ccccc1/C(=C/OCCN1CCC[C@@H](C(=O)O)C1)c1sccc1C [An_1999/3_69, s1ccc(C)c1/C(=C\OCCN1C[C@@H](CCC1)C(O)=O)/c1ccccc1C]	7.77	–
Cc1ccccc1C(=NOCCN1CCC[C@H](C(=O)O)C1)c1ccccc1C [An_1999/3_63, O(\N=C(\c1ccccc1C)/c1ccccc1C)CCN1C[C@H](CCC1)C(O)=O]	6.886	–
O=C(O)C1=CCCN(CCON=C(c2ccccc2)c2ccccc2)C1 [NO-711, O(\N=C(\c1ccccc1)/c1ccccc1)CCN1CC(=CCC1)C(O)=O]	7.328	–
COc1cccc(/C(=C/OCCN2CCC[C@@H](C(=O)O)C2)c2ccccc2C)c1 [An_1999/3_102, O(C)c1cc(ccc1)/C(=C/OCCN1C[C@@H](CCC1)C(O)=O)/c1ccccc1C]	7.097	–
Cc1ccccc1/C(=N\OCCN1CCC[C@@H](C(=O)O)C1)c1ccccc1Cl [An_1999/3_90, Clc1ccccc1/C(=N/OCCN1C[C@@H](CCC1)C(O)=O)/c1ccccc1C]	6.699	–
